Source: US20050004134A1, “Thiazole derivative and pharmaceutical use thereof” (priority 2001, published 2005)

| melting point [°C] | SMILES |
| --- | --- |
| 224 to 226 | CCCn1nc(-c2sc(N)nc2-c2ccccc2)ccc1=O [Example 86, 6-(2-Amino-4-phenyl-1,3-thiazol-5-yl)-2-propyl-3(2H)-pyridazinone] |
| 208 to 209.5 | COCCn1nc(-c2sc(N)nc2-c2ccccc2)ccc1=O [Example 87, 6-(2-Amino-4-phenyl-1,3-thiazol-5-yl)-2-(2-methoxyethyl)-3(2H)-pyridazinone] |
| 204 to 206 | Nc1nc(-c2ccccc2)c(-c2ccc(=O)n(CC3CC3)n2)s1 [Example 88, 6-(2-Amino-4-phenyl-1,3-thiazol-5-yl)-2-(cyclopropylmethyl)-3(2H)-pyridazinone] |
| 190 to 193 | COC(=O)Cn1nc(-c2sc(N)nc2-c2ccccc2)ccc1=O [Example 89, Methyl [3-(2-amino-4-phenyl-1,3-thiazol-5-yl)-6-oxo-1 (6H)-pyridazinyl]acetate] |
| 216 to 219 | CC(=O)Cn1nc(-c2sc(N)nc2-c2ccccc2)ccc1=O [Example 90, 6-(2-Amino-4-phenyl-1,3-thiazol-5-yl)-2-(2-oxopropyl)-3(2H)-pyridazinone] |
| 163.5 to 165 | O=c1ccc(-c2sc(NCc3ccccc3)nc2-c2ccccc2)nn1Cc1ccccc1 [Example 92, 2-benzyl-6-[2-(benzylamino)-4-phenyl-1,3-thiazol-5-yl]-3(2H)-pyridazinone] |
| 225 to 228 | Nc1nc(-c2ccccc2)c(-c2ccc(=O)n(Cc3ccccc3)n2)s1 [Example 92, 6-(2-Amino-4-phenyl-1,3-thiazol-5-yl)-2-benzyl-3(2H)-pyridazinone] |
| 212 to 215 | C=CCn1nc(-c2sc(N)nc2-c2ccccc2)ccc1=O [Example 93, 2-Allyl-6-(2-amino-4-phenyl-1,3-thiazol-5-yl)-3(2H)-pyridazinone] |
| 146 to 147 | C=CCNc1nc(-c2ccccc2)c(-c2ccc(=O)n(CC=C)n2)s1 [Example 93, 2-allyl-6-[2-(allylamino)-4-phenyl-1,3-thiazol-5-yl]-3(2H)-pyridazinone] |
| 232 to 234 | CC(C)n1nc(-c2sc(NC=O)nc2-c2ccccc2)ccc1=O [Example 94, 5-(1-isopropyl-6-oxo-1,6-dihydro-3-pyridazinyl)-4-phenyl-1,3-thiazol-2-ylformamide] |
| 198 to 199 | CC(C)n1nc(-c2sc(NC(=O)OC(C)(C)C)nc2-c2ccccc2)ccc1=O [Example 95, tert-butyl 5-(1-isopropyl-6-oxo-1,6-dihydro-3-pyridazinyl)-4-phenyl-1,3-thiazol-2-ylcarbamate] |
| 192 to 194 | COCCNCc1ccc(C(=O)Nc2nc(-c3ccccc3)c(-c3ccc(=O)n(C(C)C)n3)s2)cc1 [Example 96, N-[5-(1-isopropyl-6-oxo-1,6-dihydro-3-pyridazinyl)-4-phenyl-1,3-thiazol-2-yl]-4-([(2-methoxyethyl)amino]methyl}benzamide] |
| 224 to 227 | CC(C)n1nc(-c2sc(NC(=O)c3ccc(CN4CCN(C)CC4)cc3)nc2-c2ccccc2)ccc1=O [Example 97, N-(5-(1-Isopropyl-6-oxo-1,6-dihydro-3-pyridazinyl)-4-phenyl-1,3-thiazol-2-yl]-4-[(4-methyl-1-piperazinyl)methyl]benzamide] |
| 157 to 158 | Cc1cccc(NC(=O)N(C)c2nc(-c3ccccc3)c(-c3ccc(=O)n(C(C)C)n3)s2)c1 [Example 99, N-[5-(1-isopropyl-6-oxo-1,6-dihydro-3-pyridazinyl)-4-phenyl-1,3-thiazol-2-yl]-N-methyl-N′-(3-methylphenyl)urea] |
| 160 to 161 | CC(C)n1nc(-c2sc(NC(=O)Cn3ccnc3)nc2-c2ccccc2)ccc1=O [Example 102, 2-(1H-Imidazol-1-yl)-N-[5-(1-isopropyl-6-oxo-1,6-dihydro-3-pyridazinyl)-4-phenyl-1,3-thiazol-2-yl]acetamide] |
